ChEMBL document CHEMBL5550185, “Targeting hTERT Promoter G-Quadruplex DNA Structures with Small-Molecule Ligand to Downregulate hTERT Expression for Triple-Negative Breast Cancer Therapy” (J Med Chem, 2024)
Active and inactive are the calls of the source. No cut-off for these calls is given here.

Legend:
[1] = system: Quadruplex DNA; experiment: Binding affinity to human TERT G4 DNA in Tris-HCl buffer at pH 7.4 assessed as fold increase in fluorescence signal at 5 uM by fluorescence spectrometer relative to control; format: nucleic-acid assay
[2] = system: HepG2; experiment: Cytotoxicity against telomerase-positive human HepG2 cells assessed as inhibition of cell growth incubated for 48 hrs by MTT assay; format: functional, cell-based; conditions: HepG2, 48 h
[3] = system: DNA; experiment: Binding affinity to Ds26 duplex DNA (unknown origin) assessed as change in gibbs free energy at 400 uM by ITC analysis; format: nucleic-acid assay
[4] = system: Quadruplex DNA; experiment: Binding affinity to RET G4 DNA (unknown origin) assessed as thermal stability by measuring change in melting temperature at 400 uM […]; format: nucleic-acid assay
[5] = system: HeLa; experiment: Cytotoxicity against telomerase-positive human HeLa cells assessed as inhibition of cell growth incubated for 48 hrs by MTT assay; format: functional, cell-based
[6] = target: Quadruplex DNA; experiment: Binding affinity to c-MYC Pu27 G4 DNA (unknown origin) assessed as dissociation constant by ITC analysis; format: nucleic-acid assay
[7] = system: Quadruplex DNA; experiment: Binding affinity to Bcl-2 G4 DNA (unknown origin) assessed as change in gibbs free energy at 400 uM by ITC analysis; format: nucleic-acid assay
[8] = system: Quadruplex DNA; experiment: Binding affinity to Telo21 G4 DNA (unknown origin) assessed as change in enthalpy at 400 uM by ITC analysis; format: nucleic-acid assay
[9] = system: Quadruplex DNA; experiment: Binding affinity to Telo21 G4 DNA (unknown origin) assessed as change in gibbs free energy at 400 uM by ITC analysis; format: nucleic-acid assay
[10] = Selectivity ratio of binding affinity to human TERT G4 DNA to binding affinity to Telo21 G4 DNA (unknown origin)
[11] = system: Quadruplex DNA; experiment: Binding affinity to human TERT G4 DNA in Tris-HCl buffer at pH 7.4 assessed as increase in CD signal at 5 to 100 uM by circular dichroism spectrometer; format: nucleic-acid assay; conditions: dose 5-100 µM
[12] = system: MDA-MB-231; experiment: Cytotoxicity against telomerase-positive human MDA-MB-231 cells assessed as inhibition of cell growth incubated for 48 hrs by MTT assay; format: functional, cell-based; conditions: MDA-MB-231, 48 h
[13] = Cytotoxicity against HUVEC cells assessed as inhibition of cell growth incubated for 48 hrs by MTT assay; format: toxicity, cell-based; conditions: human
[14] = system: MDA-MB-231; experiment: Downregulation of CTCF mRNA expression in human MDA-MB-231 cells at 0 to 1.5 uM measured after 48 hrs by qRT-PCR analysis; format: functional, cell-based; conditions: dose 0-1.5 µM
[15] = system: MDA-MB-231; experiment: Inhibition of hTERT protein expression in human MDA-MB-231 cells measured after 48 hrs by Western blot analysis; format: functional, cell-based; conditions: dose 0-1.5 µM
[16] = target: Telomerase reverse transcriptase (Homo sapiens) (UniProt O14746); experiment: Inhibition of telomerase activity in human MDA-MB-231 cells at >=1 uM incubated for 30 mins by SYBR Gold staining based TRAP assay; format: cell-based
Chain of Telomerase reverse transcriptase (Homo sapiens) (O14746 whole entry): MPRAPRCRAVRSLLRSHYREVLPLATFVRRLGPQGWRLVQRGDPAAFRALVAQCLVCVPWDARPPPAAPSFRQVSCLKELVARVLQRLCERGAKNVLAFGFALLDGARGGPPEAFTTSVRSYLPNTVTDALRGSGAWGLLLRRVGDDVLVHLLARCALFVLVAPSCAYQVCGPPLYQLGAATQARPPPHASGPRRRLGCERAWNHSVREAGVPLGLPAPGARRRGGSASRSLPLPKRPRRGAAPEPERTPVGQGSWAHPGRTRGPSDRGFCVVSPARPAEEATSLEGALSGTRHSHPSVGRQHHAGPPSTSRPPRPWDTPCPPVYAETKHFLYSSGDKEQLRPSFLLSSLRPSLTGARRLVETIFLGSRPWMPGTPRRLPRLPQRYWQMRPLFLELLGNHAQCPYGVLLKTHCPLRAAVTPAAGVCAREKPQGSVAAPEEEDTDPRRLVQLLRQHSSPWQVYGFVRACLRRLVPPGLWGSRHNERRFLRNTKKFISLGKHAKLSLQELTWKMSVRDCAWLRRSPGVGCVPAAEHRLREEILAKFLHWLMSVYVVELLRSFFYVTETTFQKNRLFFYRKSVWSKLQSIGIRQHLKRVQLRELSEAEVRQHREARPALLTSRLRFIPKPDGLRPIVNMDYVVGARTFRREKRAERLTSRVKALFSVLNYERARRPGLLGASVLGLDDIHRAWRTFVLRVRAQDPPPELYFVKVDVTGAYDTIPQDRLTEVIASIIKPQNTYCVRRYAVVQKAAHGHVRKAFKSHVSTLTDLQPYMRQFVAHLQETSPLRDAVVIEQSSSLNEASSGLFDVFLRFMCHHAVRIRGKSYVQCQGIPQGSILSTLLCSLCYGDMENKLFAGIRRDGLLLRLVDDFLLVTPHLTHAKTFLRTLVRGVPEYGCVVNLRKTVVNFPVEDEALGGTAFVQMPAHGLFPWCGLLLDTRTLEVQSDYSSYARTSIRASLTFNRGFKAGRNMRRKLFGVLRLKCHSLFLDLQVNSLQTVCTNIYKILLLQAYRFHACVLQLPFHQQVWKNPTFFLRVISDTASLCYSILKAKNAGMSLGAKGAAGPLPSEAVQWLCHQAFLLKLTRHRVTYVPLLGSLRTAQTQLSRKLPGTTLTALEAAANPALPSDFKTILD

[17] = system: MDA-MB-231; experiment: Induction of telomere dysfunction in human MDA-MB-231 cells assessed as telomer length shortening effect at 0.2 uM measured after 10 days by qRT-PCR analysis; format: functional, cell-based; conditions: time 10.0 day
[18] = system: MDA-MB-231; experiment: Induction of mitochondrial phagocytosis in human MDA-MB-231 cells assessed as increase in autophagic vesicle formation measured after 48 hrs by MitoTracker Deep Red FM staining based live-cell confocal microscopic analysis; format: functional; conditions: dose 0-1.5 µM
[19] = system: MDA-MB-231; experiment: Induction of autophagy in human MDA-MB-231 cells assessed as upregulation of BNIP3L/Nix protein expression at 0 to 1.5 uM measured after 48 hrs by Western blot analysis; format: functional, cell-based; conditions: dose 0-1.5 µM
[20] = system: MDA-MB-231; experiment: Induction of autophagy in human MDA-MB-231 cells assessed as upregulation of LC3-II protein expression at 0 to 1.5 uM measured after 48 hrs by Western blot analysis; format: functional, cell-based; conditions: dose 0-1.5 µM
[21] = system: MDA-MB-231; experiment: Downregulation of DNAPKcs transcription level in human MDA-MB-231 cells at 1 uM measured after 48 hrs by RNA-seq analysis; format: functional, cell-based
[22] = Upregulation of PLK1 gene expression in human MDA-MB-231 cells assessed as fold change at 1 uM measured after 48 hrs by RNA-seq analysis relative to control; format: functional
[23] = Upregulation of SGK1 gene expression in human MDA-MB-231 cells assessed as fold change at 1 uM measured after 48 hrs by RNA-seq analysis relative to control; format: functional
[24] = Upregulation of S1PR1 gene expression in human MDA-MB-231 cells assessed as fold change at 1 uM measured after 48 hrs by RNA-seq analysis relative to control; format: functional
[25] = system: MDA-MB-231; experiment: Inhibition of hTERT expression at transcriptional level in human MDA-MB-231 cells at 1 uM measured after 48 hrs by RNA-seq analysis; format: functional, cell-based
[26] = Upregulation of CDKN1A gene expression in human MDA-MB-231 cells assessed as fold change at 1 uM measured after 48 hrs by RNA-seq analysis relative to control; format: functional
[27] = Upregulation of MAP1LC3B gene expression in human MDA-MB-231 cells assessed as fold change at 1 uM measured after 48 hrs by RNA-seq analysis relative to control; format: functional
[28] = Toxicity in female Balb/c nude mouse xenografted with human MDA-MB-231 cells assessed as reduction in body weight at 2 to 5 mg/kg, iv administered via tail vein every 2 days for 16 days; format: organism-based; conditions: in vivo, 384 h, dose 2-5 mg/kg, time 16 day
[29] = Toxicity in female Balb/c nude mouse xenografted with human MDA-MB-231 cells assessed as signs of ulcer at 2 to 5 mg/kg, iv administered via tail vein every 2 days for 16 days; format: organism-based; conditions: in vivo, 384 h, dose 2-5 mg/kg, time 16 day
[30] = Toxicity in female Balb/c nude mouse xenografted with human MDA-MB-231 cells assessed as signs of discomfort at 2 to 5 mg/kg, iv administered via tail vein every 2 days for 16 days; format: organism-based; conditions: in vivo, 384 h, dose 2-5 mg/kg, time 16 day
[31] = system: MDA-MB-231; experiment: Antitumor activity against human MDA-MB-231 cells xenografted in female Balb/c mouse assessed as reduction in tumor volume at 2 mg/kg, iv administered via tail vein every 2 days for 16 days relative to control; format: functional; design: scale not given: the % may be the effect or the level left; conditions: time 16 day
[32] = system: MDA-MB-231; experiment: Antitumor activity against human MDA-MB-231 cells xenografted in female Balb/c mouse assessed as inhibition of tumor cell proliferation at 5 mg/kg, iv administered via tail vein every 2 days for 16 days by Ki67 staining based assay; format: functional, organism-based; conditions: time 16.0 day
[33] = Toxicity in female Balb/c nude mouse xenografted with human MDA-MB-231 cells assessed as change in ALT level at 2 to 5 mg/kg, iv administered via tail vein every 2 days for 16 days; format: organism-based; conditions: in vivo, 384 h, dose 2-5 mg/kg, time 16 day
[34] = Toxicity in female Balb/c nude mouse xenografted with human MDA-MB-231 cells assessed as change in blood urea nitrogen level at 2 to 5 mg/kg, iv administered via tail vein every 2 days for 16 days; format: organism-based; conditions: in vivo, 384 h, dose 2-5 mg/kg, time 16 day
[35] = Toxicity in female Balb/c nude mouse xenografted with human MDA-MB-231 cells assessed as change in mean corpuscular volume at 2 to 5 mg/kg, iv administered via tail vein every 2 days for 16 days; format: organism-based; conditions: in vivo, 384 h, dose 2-5 mg/kg, time 16 day
[36] = Toxicity in female Balb/c nude mouse xenografted with human MDA-MB-231 cells assessed as pathological changes in spleen at 2 to 5 mg/kg, iv administered via tail vein every 2 days for 16 days by H and E staining based analysis; format: organism-based; conditions: in vivo, 384 h, dose 2-5 mg/kg, time 16 day

`C[n+]1c(/C=C/c2c[nH]c3ccccc23)cc(/C=C2\Sc3ccccc3N2CCCN2CCC(C(F)(F)F)CC2)c2ccccc21.[I-]` showed a fold change (FC) [1] of 29, an IC50 [2] of 2900 nM and a deltaG [3] of -6.45 kcal/mol. For the same compound, the ΔTm [4] was 0.96 °C, the IC50 [5] was 2600 nM and the Kd [6] was 14700 nM. The deltaG [7] was -7.43 kcal/mol, the deltaH [8] was -1.09 kcal/mol and the deltaG [9] was -7.49 kcal/mol. The Selectivity ratio [10] was 2, the Activity [11] was “Active” and the IC50 [12] was 1000 nM. For the same compound, the IC50 at 48 h [13] was 8700 nM, the Activity [14] was “inactive” and the inhibition [15] was “Dose-Dependent Effect”. The inhibition [16] was “Active”, the Activity [17] was “Active” and the Activity [18] was “Active”. The Activity [19] was “Active”, the Activity [20] was “Active” and the Activity [21] was “Active”. For the same compound, the “fold change (FC)” value [22] was >2, the “fold change (FC)” value [23] was >2 and the “fold change (FC)” value [24] was >2. The inhibition [25] was “Active”, the “fold change (FC)” value [26] was >2 and the “fold change (FC)” value [27] was >2. For the same compound, the Activity [28] was “Non-Toxic”, the Activity [29] was “Non-Toxic” and the Activity [30] was “Non-Toxic”. For the same compound, the Activity [31] was 52.6%, the Activity [32] was “Active” and the Activity [33] was “Non-Toxic”. For the same compound, the Activity [34] was “Non-Toxic”, the Activity [35] was “Non-Toxic” and the Activity [36] was “Non-Toxic”.
